Experimental data from patent publication US5814627A, “3, 5-disubstituted and 3, 4, 5-trisubstituted 2-isoxazolines and isoxazoles, process for their preparation and their use as pharmaceuticals” (Hoechst Aktienegesellschaft, priority 1994, dated 1998).

Experiments:
adjuvant/arthritis model = assay: Test 6: antiarthritic effect in the adjuvant/arthritis model; type: in vivo, rat (Wistar-Lewis); details: Rattus norvegicus, po, 408 h, daily for 17 days, rat, read-out: Test 6 Paw volume (% inhibition); for inhibition in vivo at 50 mg/kg: 50 mg/kg orally; for inhibition in vivo at 25 mg/kg: 25 mg/kg orally
[1] = test system: tumor cell line 20-10-5S (hybridoma cell line); assay: Test 8: Inhibition of tumor cell proliferation; type: cell-based; details: 48 h + 16 h tritiated thymidine incorporation; 20-10-5S cells
Method: The tumor cell line 20-10-5S (hybridoma cell line, supplied by ATCC (American Type Culture Collection)), which produces an antibody against mouse T cells) was used for determining the antiproliferative property of test substances. The cells were cultured, at 37° C. and 5% C2, under serum-free conditions in CG medium (cell-growth medium=Iscove-ATL (+albumin+transferrin+lipids); from Vitromex, Vilshofen). Only cells which were in the logarithmic phase of growth were used for the test mixture. The test substances were pipetted in various concentrations (from 1 to 50 μM), together with 4×10^3 20-10-5S cells, into round-bottomedmicrotiter plates (total volume with medium, 200 μl). After an incubation time of 48 h (37° C. and 5% CO2), 25 μl of tritiated thymidine (=0.25 μCi/test mixture, specific activity, 23 Ci/mM) were added to the plates. During the subsequent 16 h, the radioactively labeled thymidine was incorporated into the DNA of the growing cells. The samples were filtered off with suction on glass fiber filters and the incorporated radioactivity was measured using a β counter (Beta Plate System 1205 from Wallac).

[2] = test system: cyclooxygenase-dependent thrombocyte aggregation; assay: Test 5: Cyclooxygenase-dependent thrombocyte aggregation; type: cell-based, human; details: arachidonic acid as inducer
Method: TEST 5. Cyclooxygenase-dependent thrombocyte aggregation
Platelet-rich plasma (PRP): to inhibit coagulation, human blood was treated with 1/10 of its volume of 3.8% sodium citrate solution. Centrifugation then takes place at 105×g for 20 minutes and the supernatant (PRP) is removed. 200 μl of PRP were preincubated, at 37° C. for 10 minutes, together with 30 μl of test substance in a PAP4 aggregometer (BioData). The test substance was dissolved in organic solvent and diluted 1:30 with buffer (50 mM TisHCl, pH 8.0; 90 mM NaCl). Aggregation is triggered with 20 μl of inducer. During the aggregation, stirring takes place at 800 rpm. Arachidonic acid, 5 mg/ml, was used as the inducer.
The values in the table show the concentration of the test substance which was employed in μM and, besides this, the residual activity measured in percent based on the control, which was set to be 100%. The interleukin is additionally indicated in test 4.

[3] = test system: polymorphonuclear leucocytes (PMNL); assay: Test 1: Release of proteolytic activity from human PMNL; type: cell-based; details: Homo sapiens, PMNL, read-out: Test 1 residual activity (release of proteolytic activity), percent of control
Method: Isolation of polymorphonuclear leucocytes (PMNL) from human peripheral blood for carrying out tests 1 and 2 10 ml of human blood were diluted with 10 ml of HBSS (Serva) and underlaid with 15 ml of Lymphoprep (Dr. Molter GmbH, Heidelberg). […] A white ring, composed of mononuclear cells, is located between these two phases. The lowermost phase is composed of erythrocytes which are covered with a white layer of PMNL. The uppermost phase, and also the Lymphoprep and the white ring, were carefully removed using a syringe. The remaining sediment was carefully resuspended in 15 ml of 3% dextran in PM16 (mw: 485,000, Sigma, Deisenhofen). The suspension was then left to stand at room temperature for one hour. During this time, the erythrocytes sedimented while the PMNL remained in the supernatant. The supernatant was removed, diluted with an approximately equal volume of PM16, and centrifuged for 15 minutes at 400×g. Should the PMNL sediment be heavily contaminated with erythrocytes, it is necessary to carry out a hypotonic lysis. To do this, the sediment was resuspended in 750 μl of water. After exactly 15 seconds, the suspension was diluted with approximately 7 ml of PM16 and centrifuged for 10 minutes at 400×g. If necessary, this lysis was repeated once more. Otherwise, the PMNL sediment was resuspended in a suitable medium. 250 μl of PMNL (5·10^6 cells/ml of PBS containing 7.5 mM glucose) were incubated at 37° C. for 20 minutes with 1 μl of test substance. 1 μl of cytochalasin B (5 μg/ml of test mixture) was then added and the mixture was incubated at 37° C. for a further 5 minutes. Following the addition of 1 μl of […] necrosis factor alpha (TNF; 30 ng/ml of test mixture), the incubation was continued for 5 minutes. The release was started using 1 μl of fMLP (10 nmol/l of test mixture). After 60 minutes at 37° C., the reaction was terminated by cooling the samples down to 0° C. The samples were then centrifuged, and the supernatant was removed and frozen down. Cytochalasin B and fMLP were dissolved in DMSO and TNF was diluted with buffer. 50 μl of the supernatant were mixed with 175 μl of buffer (100 mM HEPES, pH 7.5; 500 mM NaCl) in a 96-well microtiter plate. Following the addition of 25 μl of substrate (methoxysuccinyl-[…]-nitroanilide), the extinction of each well was measured at 405 nm after 0, 5, 10, 15, 30 and 60 minutes. […] The interleukin is additionally indicated in test 4.

[4] = Homo sapiens, 100 μM, read-out: Test 5 residual activity (cyclooxygenase-dependent thrombocyte aggregation), percent of control
[5] = Homo sapiens, read-out: Test 5 residual activity (cyclooxygenase-dependent thrombocyte aggregation), percent of control

Row | Compound | IC50 [1] [µM] | activity at 100 µM [2, 4] [%] | further results
1 | CC(O)CC1CC(c2cc(C(C)(C)C)c(O)c(C(C)(C)C)c2)=NO1 (stereo not drawn) [Example 15] | 8 to 15 |  | inhibition in vivo at 50 mg/kg (adjuvant/arthritis model): 60%
2 | CC(C)(C)c1cc(-c2cc(C=O)on2)cc(C(C)(C)C)c1O [Example 66] | < 5 |  | inhibition in vivo at 25 mg/kg (adjuvant/arthritis model): 59%
3 | CCOP(=O)(/C=C/c1cc(-c2cc(C(C)(C)C)c(O)c(C(C)(C)C)c2)no1)OCC [Example 57, Diethyl 2-(3-(4-hydroxy-3,5-di-tert-butylphenyl)isoxazol-5-yl)vinylphosphonate] | < 5 | 99 | 
4 | CCOC(=O)COC(C)(C)c1cc(-c2cc(C(C)(C)C)c(O)c(C(C)(C)C)c2)no1 [Example 33, Ethyl (1-(3-(4-hydroxy-3,5-di-tert-butylphenyl)isoxazol-5-yl)-1-methylethoxy)acetate] | < 5 |  | 
5 | CC(C)(C)c1cc(C2=NO[C@H]([C@H](O)CO)C2)cc(C(C)(C)C)c1O (relative stereo) [Example 89, 3-(3,5-Di-tert-butyl-4-hydroxyphenyl)-5-(1,2-dihydroxyethyl)-2-isoxazoline,rac. erythro isomer] | 20 |  | inhibition in vivo at 50 mg/kg (adjuvant/arthritis model): 36%
6 | CN(O)C(=O)C(C)(C)OCc1cc(-c2cc(C(C)(C)C)c(O)c(C(C)(C)C)c2)no1 [Example 37, N-Methylhydroxamoyl-2-((3-(4-hydroxy-3,5-di-tert-butylphenyl)isoxazol-5-ylmethoxy)-2-methyl propionate] | < 5 |  | 
7 | C=CCC(O)CC1CC(c2cc(C(C)(C)C)c(O)c(C(C)(C)C)c2)=NO1 (stereo not drawn) [Example 79] | 5 to 10 | 96 | 
8 | CC(C)(C)c1cc(-c2cc(/C=C/P(=O)(O)O)on2)cc(C(C)(C)C)c1O [Example 58, 2-(3-(4-Hydroxy-3,5-di-tert-butylphenyl)isoxazol-5-yl)vinylphosphonic acid] |  | 99 | 
9 | CC(C)(C)c1cc(C2=NO[C@H]([C@@H]3CO3)C2)cc(C(C)(C)C)c1O (relative stereo) [Example 17] | 8 to 15 |  | 
10 | CC(C)(C)c1cc(C2=NOC3(CCC3)C2)cc(C(C)(C)C)c1O [Example 67] | < 5 |  | inhibition in vivo at 50 mg/kg (adjuvant/arthritis model): 53%
11 | CC(C)(C)c1cc(-c2cc(C(C)(C)OCC(=O)O)on2)cc(C(C)(C)C)c1O [Example 34, (1-(3-(4-Hydroxy-3,5-di-tert-butylphenyl)isoxazol-5-yl)-1-methylethoxy)acetic acid] |  | 98 | 
12 | C[C@@H](OP(=O)(Oc1ccccc1)Oc1ccccc1)[C@@H]1CC(c2cc(C(C)(C)C)c(O)c(C(C)(C)C)c2)=NO1 (relative stereo) [Example 85, Diphenyl 1-(3-(4-hydroxy-3,5-di-tert-butylphenyl)-2-isoxazolin-5-yl)ethyl phosphate] | < 5 |  | Test 5 residual activity (cyclooxygenase-dependent thrombocyte aggregation), percent of control ([2]; 100 μM): 94%
13 | CCOC(=O)CNC(=O)OCc1cc(-c2cc(C(C)(C)C)c(O)c(C(C)(C)C)c2)no1 [Example 39, N-(3-(4-Hydroxy-3,5-di-tert-butylphenyl)isoxazol-5-ylmethoxycarbonyl)glycine ethyl ester] | 30 | 98 | 
14 | CC(=O)O[C@@H](C)[C@@H]1CC(c2cc(C(C)(C)C)c(O)c(C(C)(C)C)c2)=NO1 (relative stereo) [Example 22, 1-(3-(4-Hydroxy-3,5-di-tert-butylphenyl)-2-isoxazolin-5-yl)ethyl acetate] |  |  | inhibition in vivo at 50 mg/kg (adjuvant/arthritis model): 74%
15 | CC(OC(=O)[C@@H](N)Cc1ccc(O)cc1)C1CC(c2cc(C(C)(C)C)c(O)c(C(C)(C)C)c2)=NO1 (mixture of isomers) [Example 88, L-Tyrosyl 1-(3-(3,5-di-tert-butyl-4-hydroxyphenyl)-2-isoxazolin-5-yl)ethyl ester, rac. 5,5'-erythro isomer mixture] | 10 |  | 
16 | CC(C)(OCC1CC(c2cc(C(C)(C)C)c(O)c(C(C)(C)C)c2)=NO1)C(=O)O (stereo not drawn) [Example 3, 2-(3-(4-Hydroxy-3,5-di-tert-butylphenyl)-2-isoxazolin-5-ylmethoxy)methylpropionic acid] | 10 | 98 | 
17 | CC(C)(C)c1cc(C2=NO[C@H]([C@H]3CO3)C2)cc(C(C)(C)C)c1O (relative stereo) [Example 16] | 30 |  | 
18 | CC(C)(C)c1cc(-c2noc(CO)c2CO)cc(C(C)(C)C)c1O [Example 32] |  |  | activity at 1 µM ([3]; 1 μM): 84%; activity at 10 µM ([3]; 10 μM): 72%; activity at 100 µM ([3]; 100 μM): 34%
19 | CC(O)CC(O)CC1CC(c2cc(C(C)(C)C)c(O)c(C(C)(C)C)c2)=NO1 (stereo not drawn) [Example 78] | 5 to 10 |  | activity at 50 µM [2, 5]: 94%
20 | CC(C)(C)c1cc(-c2cc(CCCOC(=O)NCC(=O)O)on2)cc(C(C)(C)C)c1O [Example 42, N-(3-(4-Hydroxy-3,5-di-tert-butylphenyl)isoxazol-5-ylpropoxycarbonyl)glycine] | 5 to 10 |  | 
21 | CCC(C)(O)c1cc(-c2cc(C(C)(C)C)c(O)c(C(C)(C)C)c2)no1 (stereo not drawn) [Example 31] |  | 100 | 
22 | COC(=O)CCc1cc(-c2cc(C(C)(C)C)c(O)c(C(C)(C)C)c2)no1 [Example 44] | 5 to 10 |  | activity at 10 µM ([2]; Homo sapiens, 10 μM, read-out: Test 5 residual activity (cyclooxygenase-dependent thrombocyte aggregation), percent of control): 99%
23 | CC(C)(C)c1cc(C2=NOC(COC(=O)NCC(=O)O)C2)cc(C(C)(C)C)c1O (stereo not drawn) [Example 4, N-(3-(4-Hydroxy-3,5-di-tert-butylphenyl)-2-isoxazolin-5-ylmethoxycarbonyl)glycine] | 30 |  | 
24 | CC(C)(C)c1cc(C2=NOC(C(N)=O)C2)cc(C(C)(C)C)c1O (stereo not drawn) [Example 11] | < 5 |  | 
25 | CC(C)(C)c1cc(-c2cc(CCC(=O)O)on2)cc(C(C)(C)C)c1O [Example 45, 3-(4-Hydroxy-3,5-di-tert-butylphenyl)isoxazol-5-ylpropionic acid] | 5 to 10 | 98 | 
26 | CC(=O)O[C@@H](C(=O)O)[C@@H](OC(C)=O)C(=O)NCc1cc(-c2cc(C(C)(C)C)c(O)c(C(C)(C)C)c2)no1 [Example 82, Di-O-acetyl-L-tartaric acid-N-(3-(4-hydroxy-3,5-di-tert-butylphenyl)isoxazol-5-yl)methylamide] |  | 93 | 
27 | CC(C)(C)c1cc(-c2cc(C(C)(C)O)on2)cc(C(C)(C)C)c1O [Example 29] | < 5 |  | 
28 | CC(=O)CC(=O)O[C@H](C)[C@@H]1CC(c2cc(C(C)(C)C)c(O)c(C(C)(C)C)c2)=NO1 (relative stereo) [Example 84, 1-(3-(4-Hydroxy-3,5-di-tert-butylphenyl)-2-isoxazolin-5-yl)ethyl 3-oxobutyrate] |  |  | inhibition in vivo at 25 mg/kg (adjuvant/arthritis model): 49%
29 | CC(C)(C)c1cc(-c2cc(CNC(=O)[C@H](O)[C@@H](O)C(=O)O)on2)cc(C(C)(C)C)c1O [Example 83] |  |  | inhibition in vivo at 50 mg/kg (adjuvant/arthritis model): 39%
30 | C=CCC(O)CC1CC(c2cc(C(C)(C)C)c(O)c(C(C)(C)C)c2)=NO1 (stereo not drawn) [Example 80] | 5 to 10 |  | activity at 50 µM [2, 5]: 97%
